Source: article PMC10485095, “Structure and enzymatic characterization of CelD endoglucanase from the anaerobic fungus Piromyces finnis” (Applied Microbiology and Biotechnology, 2023)

Biological target: T1, CelD GH5 catalytic domain (construct 91–452) (Piromyces finnis, UniProt A0A1Y1V643)
T1 construct: gene BCR36DRAFT_398243; third GH5 catalytic domain of 136 kDa three-GH5, double-dockerin CelD; E. coli BL21-Gold(DE3), pMCSG68; N-terminal His/Strep tag cut by TEV for crystallisation; two molecules per asymmetric unit
Experiment: X-ray crystallography, co-crystal, […] Å
Assay type: binding
Conditions: inactive acid/base mutant; 10 mM cellotriose added; bound at -3, -2, -1 subsites of active site; 0.1 M sodium acetate, 24% PEG 6000, 16 °C

T1 sequence (A0A1Y1V643 entry or part of it E900A): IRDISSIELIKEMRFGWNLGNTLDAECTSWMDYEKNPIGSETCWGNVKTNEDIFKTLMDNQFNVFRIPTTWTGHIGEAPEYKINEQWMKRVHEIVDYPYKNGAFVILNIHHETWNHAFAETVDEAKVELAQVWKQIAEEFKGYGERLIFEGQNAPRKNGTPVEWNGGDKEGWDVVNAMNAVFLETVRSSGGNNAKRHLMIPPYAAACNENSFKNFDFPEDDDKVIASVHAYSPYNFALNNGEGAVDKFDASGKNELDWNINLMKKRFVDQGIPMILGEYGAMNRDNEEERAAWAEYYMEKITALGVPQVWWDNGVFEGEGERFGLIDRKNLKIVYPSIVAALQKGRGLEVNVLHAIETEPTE

## OC[C@H]1O[C@@H](O[C@H]2[C@H](O)[C@@H](O)[C@H](O[C@H]3[C@H](O)[C@@H](O)C(O)O[C@@H]3CO)O[C@@H]2CO)[C@H](O)[C@@H](O)[C@@H]1O (stereo partly shown) [cellotriose]
  X-ray crystallography, co-crystal, 1.8 Å: The complex between the E154A mutant protein and cellotriose was formed by adding the ligand
